Data published in ChEMBL document CHEMBL1135798, “Structure-activity relationships of the antimalarial agent artemisinin. 6. The development of predictive in vitro potency models using CoMFA and HQSAR methodologies” (2002).

tested on: Plasmodium falciparum; test: Antimalarial activity against chloroquine-resistant, mefloquine-sensitive Plasmodium falciparum W2; format: functional

Row | SMILES | Log RA
1 | COC(=O)c1ccc(COC2O[C@@H]3O[C@@]4(C)CC[C@H]5[C@H](C)CC[C@@H]([C@H]2C)[C@@]35OO4)cc1 (some centres not stated) | -0.07
2 | CCCCC[C@H]1C(=O)O[C@@H]2O[C@@]3(C)CC[C@H]4[C@H](C)CC[C@@H]1[C@@]24OO3 | 1.02
3 | C=C/N=N/[C@H]1C(=O)O[C@@H]2O[C@]3(C)CC[C@H]4[C@H](C)CC[C@@H]1[C@@]24OO3 | -2.7
4 | C[C@@H]1CC[C@H]2CC(=O)O[C@@H]3O[C@@]4(C)CC[C@@H]1[C@@]23OO4 | 0.79
5 | COC(=O)[C@@H](C)COC1O[C@@H]2O[C@@]3(C)CC[C@H]4[C@H](C)CC[C@@H]([C@H]1C)[C@@]24OO3 (some centres not stated) | 1.79
6 | COC(=O)CCOC1O[C@@H]2O[C@@]3(C)CC[C@H]4[C@H](C)CC[C@@H]([C@H]1C)[C@@]24OO3 (some centres not stated) | 0.1
7 | CCOC1O[C@@H]2O[C@@]3(C)CC[C@H]4[C@H](C)CC[C@@H]([C@H]1CC)[C@@]24OO3 (some centres not stated) | 0.5
8 | CCO[C@H]1O[C@@H]2O[C@@]3(C)CC[C@H]4[C@H](C)CC[C@@H]([C@H]1C)[C@@]24O3 | -4
9 | CCCC(=O)OCC(CC)(CC)OOC(C)(C)C | -4
10 | CO[C@@]1(C)CC[C@H]2[C@H](C)CCC[C@]2(C=O)OO1 | -4
11 | CC(C)C[C@@]12CC[C@H]3[C@H](C)CC[C@H]4CCO[C@H](O1)[C@]43OO2 | 0.4
12 | CCCC[C@H]1CO[C@@H]2O[C@@]3(C)CC[C@H]4[C@H](C)CC[C@@H]1[C@@]24O3 | -4
13 | CCCC[C@H]1C(=O)O[C@@H]2O[C@@]3(CCCC)CC[C@H]4[C@H](C)CC[C@@H]1[C@@]24OO3 | -0.48
14 | C[C@@H]1CC[C@H]2CCO[C@@H]3O[C@@]4(CCc5ccccc5)CC[C@@H]1[C@@]23OO4 | -1.7
15 | CC[C@@]12CC[C@H]3[C@H](C)CC[C@H]4CCO[C@H](O1)[C@]43OO2 | -1
16 | CC(C)C[C@@]12CC[C@H]3[C@H](C)CC[C@H]4CCO[C@H](O1)[C@]43O2 | -4
17 | CC1O[C@@H]2O[C@@]3(C)CC[C@H]4[C@H](C)CC[C@@H]1[C@@]24OO3 (some centres not stated) | -0.64
18 | CCCC[C@H]1C(O)O[C@@H]2O[C@@]3(C)CC[C@H]4[C@H](C)CC[C@@H]1[C@@]24OO3 (some centres not stated) | 0.96
19 | CCO[C@H]1O[C@@H]2O[C@@]3(C)CC[C@H]4C(C)=C(F)C[C@@H]([C@H]1C)[C@@]24OO3 | -0.12
20 | CCCCCC[C@H]1C(=O)O[C@@H]2O[C@@]3(C)CC[C@H]4[C@H](C)CC[C@@H]1[C@@]24OO3 | 0.86
21 | CCOC1O[C@@H]2O[C@@]3(C)CC[C@H]4[C@H](C)CC[C@H]([C@@]24OO3)[C@@]1(C)O (some centres not stated) | -1.13
22 | C[C@@H]1CC[C@H]2[C@@H](C)CO[C@@H]3O[C@@]4(C)CC[C@@H]1[C@]32O4 | -4
23 | C[C@@H]1CC[C@H]2CC(=O)N(C)[C@@H]3O[C@@]4(C)CC[C@@H]1[C@@]23OO4 | 0.7
24 | C[C@@H]1CC[C@H]2[C@@H](C)C(=O)N(c3ccco3)[C@@H]3O[C@@]4(C)CC[C@@H]1[C@@]23OO4 | 0.11
25 | C[C@@H]1CC[C@H]2[C@H](C)C(=O)O[C@@H]3O[C@@]4(C)CC[C@@H]1[C@]32OO4 | -0.17
26 | CCCCCC[C@H]1C(=O)O[C@@H]2O[C@@]3(C)CC[C@H]4[C@H](C)CC[C@@H]1[C@@]24O3 | -4

Row | SMILES | Log RA
27 | O=S(=O)(c1ccccc1)N1C[C@]2(c3ccccc3)CC[C@@](c3ccccc3)(C1)OO2 | -2.26
28 | CCO[C@H]1O[C@@H]2O[C@@]3(C)CC[C@H]4C(C)C(=O)C[C@@H]([C@H]1C)[C@@]24OO3 (some centres not stated) | 0.16
29 | CC1(C)OO[C@]23CCCCC2CC(=O)OC3O1 (some centres not stated) | -2.237
30 | CCC[C@H]1C(=O)O[C@@H]2O[C@@]3(C)CC[C@H]4[C@H](C)CC[C@@H]1[C@@]24OO3 | 1.13
31 | CCOC1O[C@@H]2O[C@@]3(C)CC[C@H]4[C@H](C)CC[C@@H]([C@H]1C)[C@@]24OO3 (some centres not stated) | 0.34
32 | C[C@H]1C(=O)OC2OC(C)(C)OO[C@@]23CCCCC13 (some centres not stated) | -1.27
33 | C[C@@H]1CC[C@H]2[C@@H](C)C(CC(C)(F)F)O[C@@H]3O[C@@]4(C)CC[C@@H]1[C@]32OO4 (some centres not stated) | -0.17
34 | C[C@@H]1CC[C@@H]2[C@]34OO[C@](C)(CC[C@@H]13)O[C@H]4OC(OCC(F)(F)F)[C@@]2(C)O (some centres not stated) | 0.29
35 | C[C@@H]1CC[C@H]2[C@@H](C)C(=O)O[C@@H]3O[C@@]4(C)CC[C@@H]1[C@]32O4 [DEOXYARTEMISININ] | -4
36 | C[C@@H]1CC[C@H]2[C@@H](CCc3ccccc3)C(=O)O[C@@H]3O[C@@]4(C)CC[C@@H]1[C@]32O4 | -4
37 | C=CCOCC[C@@H]1CCC[C@@H]2CC[C@@]3(C)OO[C@]21[C@@H](OC)O3 | 0.4
38 | CCCCC1O[C@@H]2O[C@@]3(C)CC[C@H]4[C@H](C)CC[C@@H]([C@H]1C)[C@@]24OO3 (some centres not stated) | 0.06
39 | CO[C@@H]1O[C@@]2(C)CC[C@H]3CCC[C@@H](CCOC(=O)N(c4ccccc4)c4ccccc4)[C@]31OO2 | 1.06
40 | CC(C)CN1C(=O)[C@H](C)[C@@H]2CC[C@@H](C)[C@@H]3CC[C@]4(C)O[C@@H]1[C@@]32O4 | -4
41 | c1ccc([C@]23CC[C@@](c4ccccc4)(COC2)OO3)cc1 | -2.26
42 | C[C@@H]1CC[C@H]2[C@@H](C)CO[C@H]3C[C@]4(C)CC[C@@H]1[C@@]32OO4 | -2.59
43 | CCC(=O)OCC(CC)(CC)OOC(C)(C)C | -4
44 | CO[C@H]1O[C@@]2(C)CC[C@H]3CCC[C@@H](CCOCc4ccncc4)[C@]31OO2 | 0.14
45 | CCOC(=O)[C@H](O[C@H]1O[C@@H]2O[C@@]3(C)CC[C@H]4[C@H](C)CC[C@@H]([C@H]1C)[C@@]24OO3)c1ccccc1 | 0.87
46 | CC(C)C[C@@]12CC[C@H]3[C@H](C)CC[C@H]4CC(=O)O[C@H](O1)[C@]43OO2 | -0.35
47 | CC1CO[C@@H]2O[C@@]3(C)CC[C@H]4[C@H](C)CC[C@@H]1[C@@]24OO3 (some centres not stated) | -0.79
48 | C[C@@H]1CC[C@H]2[C@@H](CCc3ccccc3)C(=O)O[C@@H]3O[C@@]4(C)CC[C@@H]1[C@]32OO4 | 0.12
49 | CO[C@H]1O[C@@]2(C)CC[C@H]3CCCC[C@]31OO2 | -0.31
50 | C[C@@H]1CC[C@@H]2[C@]34OO[C@](C)(CC[C@@H]13)O[C@H]4OC(OCC(F)(F)F)[C@]2(C)O (some centres not stated) | -0.7
51 | CO[C@H]1O[C@]2(C)OO[C@]13[C@H](CCOCc1ccccc1)CCC[C@@H]3CC2(C)C | -1.8
52 | C[C@@H]1CCC[C@]23OO[C@](C)(CC[C@@H]12)O[C@H]3OC(=O)Cc1ccccc1 | -0.51
